# Experiments:
# [1] = test system: HGT-1 parietal cell model; experiment: Proton secretion assay (intracellular proton index, IPX) in the HGT-1 parietal cell model; type: cell-based; conditions: for IPX [induced by 50 mM AA] D: D stereoisomer; for IPX [induced by 50 mM AA] D / IPX [induced by 50 mM AA] L: 50 mM amino acid, HGT-1 cells, IPX based on log 2 data of intracellular proton concentration, lower IPX = more protons secreted; for IPX [induced by 50 mM AA] L: L stereoisomer; for acid modulating effect (indicator of satiety): among the amino acids listed in Table 1
# Text: The value of intracellular proton secretion (IPX) in the parietal cell model HGT-1 (proton secretion assay), which is a marker for gastric secretion, indicates the extent to which the amino acid is able to inhibit proton secretion and is thus indirectly a measure of saturation. The intracellular proton index (IPX) is based on log 2 data of intracellular proton concentration. The lower the IPX, the more protons are secreted. A low IPX is interpreted as stimulation of gastric acid, which in turn is a saturation signal.
# neurons = conditions: concentration range 0.01 μM to 10 μM (0.003 mg/kg to 3 mg/kg); cited from earlier work
# dopamine release = conditions: about 0.03 mg/kg (equivalent to 0.1 μM); cited from earlier work
# [2] = sensory; cited from earlier work
SMILES,IPX [induced by 50 mM AA] D [1],IPX [induced by 50 mM AA] L [1],also measured
CC(N)C(=O)O (stereo not drawn) [ALA],−0.35 ± 0.08,0.87 ± 0.10,
"N=C(N)NCCC[C@H](N)C(=O)O [ARG, arginine]",−2.37 ± 0.05,−2.71 ± 0.11,
N=C(N)NCCC[C@@H](N)C(=O)O [D-arginine],,,acid modulating effect (indicator of satiety) [1]: best acid modulating effect
CCC(C)C(N)C(=O)O (stereo not drawn) [ILE],−0.40 ± 0.04,0.58 ± 0.07,
N=C(N)NCCC[C@H](N)C(=O)O [L-arginine],,,acid modulating effect (indicator of satiety) [1]: best acid modulating effect
CC(C)CC(N)C(=O)O (stereo not drawn) [LEU],1.10 ± 0.13,1.38 ± 0.14,
"CCCCCCCCC(=O)NCc1ccc(O)c(OC)c1 [N-nonanoylvanillylamine, N-((4-hydroxy-3-methoxyphenyl-)methyl-)nonanamide]",,,stimulation of serotonin release in neurons against the respective control (neurons): up to 270%; stimulation of dopamine release after acetylcholine stimulation against the respective control (dopamine release): up to 700%; detection threshold [2]: 0.107 mg/kg; irritation threshold [2]: 0.054 mg/kg
NC(Cc1ccccc1)C(=O)O (stereo not drawn) [PHE],1.58 ± 0.10,0.50 ± 0.05,
O=C(O)C1CCCN1 (stereo not drawn) [PRO],0.63 ± 0.09,0.44 ± 0.08,
NC(CO)C(=O)O (stereo not drawn) [SER],0.87 ± 0.10,1.40 ± 0.12,
CC(O)C(N)C(=O)O (stereo not drawn) [THR],1.57 ± 0.05,1.43 ± 0.10,
NC(Cc1c[nH]c2ccccc12)C(=O)O (stereo not drawn) [TRP],−0.04 ± 0.04,−0.66 ± 0.23,
CC(C)C(N)C(=O)O (stereo not drawn) [VAL],−0.44 ± 0.17,0.99 ± 0.05,
"CCCCC/C=C/C=C/C(=O)NCC(C)C [pellitorin, Pellitorin]",,,detection threshold [2]: 0.1 mg/kg

# Reference: US20220071933A1, “COMBINATION REMEDY” (SYMRISE AG, priority 2019, published 2022)
